This test deals with Phaedon cochleariae. Put plainly: Insecticidal activity against mustard beetles at 10 ug after 24 to 48 hrs. Type of test: functional.

Results on one compound are retold here after ChEMBL document CHEMBL1144126, “A new insecticidal pyranocyclohexenedione from kunzea ericifolia” (1999).

`CC(C)C[C@@H]1C2=C(O[C@@H](C3=C(O)C(C)(C)C(=O)C(C)(C)C3=O)[C@H]1C(C)C)C(C)(C)C(=O)C(C)(C)C2=O` [ERICIFOLIONE] showed an Activity of 97%.
